Reference: patent US20240374591A1, “CEREBLON BINDING COMPOUNDS, COMPOSITIONS THEREOF, AND METHODS OF TREATMENT THEREWITH” (CELGENE CORPORATION, priority 2021, published 2024)
Where a name gives a salt, the structure may show the parent alone.

Molecular target: T1, AR in VCaP cells (Homo sapiens, UniProt P10275)
T1 construct: endogenous in cells; host or cells: VCaP cells
T1 sequence (P10275 1-920): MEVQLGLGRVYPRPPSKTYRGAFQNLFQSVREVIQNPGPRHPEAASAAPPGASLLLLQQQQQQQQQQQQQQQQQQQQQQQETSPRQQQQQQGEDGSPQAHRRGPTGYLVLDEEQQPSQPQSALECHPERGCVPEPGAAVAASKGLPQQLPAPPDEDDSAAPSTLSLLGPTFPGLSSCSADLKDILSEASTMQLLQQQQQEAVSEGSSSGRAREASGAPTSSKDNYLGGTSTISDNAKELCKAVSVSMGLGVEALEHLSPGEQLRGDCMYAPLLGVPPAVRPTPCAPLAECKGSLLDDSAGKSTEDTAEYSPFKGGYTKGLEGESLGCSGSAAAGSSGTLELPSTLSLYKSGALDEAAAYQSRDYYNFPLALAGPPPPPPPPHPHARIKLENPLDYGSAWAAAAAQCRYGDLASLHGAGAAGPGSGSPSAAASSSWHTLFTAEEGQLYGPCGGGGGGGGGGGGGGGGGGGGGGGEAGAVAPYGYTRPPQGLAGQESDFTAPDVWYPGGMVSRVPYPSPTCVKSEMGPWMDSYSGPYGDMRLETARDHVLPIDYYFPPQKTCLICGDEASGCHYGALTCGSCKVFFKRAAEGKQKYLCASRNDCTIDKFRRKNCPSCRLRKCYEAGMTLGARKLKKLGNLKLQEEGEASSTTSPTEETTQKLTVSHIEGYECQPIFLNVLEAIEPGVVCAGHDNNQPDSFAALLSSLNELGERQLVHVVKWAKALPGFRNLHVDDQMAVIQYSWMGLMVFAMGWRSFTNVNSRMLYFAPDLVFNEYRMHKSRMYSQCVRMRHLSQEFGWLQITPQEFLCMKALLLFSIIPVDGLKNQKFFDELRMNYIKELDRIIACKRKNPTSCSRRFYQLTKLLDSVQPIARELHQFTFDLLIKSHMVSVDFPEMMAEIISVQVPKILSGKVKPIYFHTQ
Assay: VCAP AR Degradation Assay (AR ELISA, 24 h)
Format: cell-based
Conditions: for DC50: concentration giving 50% AR degradation vs DMSO control; for remaining activity at up to 5 µM: lowest measured AR level normalized to DMSO control, top concentration 5 μM, read-out: Y
Experimental: VCAP AR Degradation Assay. Test compounds were pre-dispensed into a Corning CellBind 96-well clear bottom plate (Cat #3300) using an acoustic dispenser to make a 10-point concentration series at 1:3 dilution for each compound. The final top concentration of each compound was 5 μM. DMSO at a final concentration of 0.1% was used as a control. VCaP cells cultured in DMEM with 8% fetal bovine serum (FBS) were seeded at 50K cells per well in a 200 μL volume into the compound plate and incubated at 37° C. in a CO2 incubator for 24 h. The medium was carefully removed from the cells and the plate was placed on ice. One hundred μL of ice-cold 1× cell lysis buffer from Cell Signaling Technologies (Cat #9803) was added to each well of the cells and the plate was incubated at 4° C. on a shaker for 1 h. Fifteen μL of cell lysate was used for AR ELISA detection using a PathScan Total Sandwich AR ELISA kit (Cell Signaling Technology, Cat #12580). AR levels in compound-treated wells were normalized to that of DMSO control and expressed as percent of control (PoC) (y). A Four Parameter Logistic Model (Sigmoidal Dose-Response Model) was used to determine the compound's DC50, and EC50, using the following equation: […]
The lowest measured AR level normalized to DMSO control in response to compound treatment, termed Y value, was used to characterize the compound-mediated AR degradation efficiency.

Compound | DC50 | remaining activity at up to 5 µM
C[C@@H]1CN(CCO[C@H]2CC[C@H](N3C(=S)N(c4ccc(C#N)c(C(F)(F)F)c4)C(=O)C3(C)C)CC2)C[C@H](C)N1CC(=O)Nc1ccc(N2CCC(=O)NC2=O)nc1 [Cmpd 1, 2-((2R,6S)-4-(2-((trans-4-(3-(4-Cyano-3-(trifluoromethyl)phenyl)-5,5-dimethyl-4-oxo-2-thioxoimidazolidin-1-yl)cyclohexyl)oxy)ethyl)-2,6-dimethylpiperazin-1-yl)-N-(6-(2,4-dioxotetrahydropyrimidin-1(2H)-yl)pyridin-3-yl)acetamide] | 100 to 10000 nM | 30 to 70%
C[C@@H]1CN(CCO[C@H]2CC[C@H](N3C(=S)N(c4ccc(C#N)c(C(F)(F)F)c4)C(=O)C3(C)C)CC2)C[C@H](C)N1CC(=O)Nc1ccc(C2CCC(=O)NC2=O)nc1 (stereo partly drawn) [Cmpd 2, 2-((2R,6S)-4-(2-((trans-4-(3-(4-Cyano-3-(trifluoromethyl)phenyl)-5,5-dimethyl-4-oxo-2-thioxoimidazolidin-1-yl)cyclohexyl)oxy)ethyl)-2,6-dimethylpiperazin-1-yl)-N-(6-(2,6-dioxopiperidin-3-yl)pyridin-3-yl)acetamide hydrochloride] | 5 to 10 nM | 30 to 70%
C[C@@H]1CN(CCC[C@H]2CC[C@H](N3C(=S)N(c4ccc(C#N)c(C(F)(F)F)c4)C(=O)C3(C)C)CC2)C[C@H](C)N1CC(=O)Nc1ccc(C2CCC(=O)NC2=O)nc1 (stereo partly drawn) [Cmpd 3, 2-((2R,6S)-4-(3-(trans-4-(3-(4-Cyano-3-(trifluoromethyl)phenyl)-5,5-dimethyl-4-oxo-2-thioxoimidazolidin-1-yl)cyclohexyl)propyl)-2,6-dimethylpiperazin-1-yl)-N-(6-(2,6-dioxopiperidin-3-yl)pyridin-3-yl)acetamide] | 5 to 10 nM | 30 to 70%
C[C@@H]1CN(CCCO[C@H]2CC[C@H](N3C(=S)N(c4cnc(C#N)c(C(F)(F)F)c4)C(=O)C3(C)C)CC2)C[C@H](C)N1CC(=O)Nc1ccc(C2CCC(=O)NC2=O)nc1 (stereo partly drawn) [Cmpd 4, 2-((2R,6S)-4-(3-((trans-4-(3-(6-Cyano-5-(trifluoromethyl)pyridin-3-yl)-5,5-dimethyl-4-oxo-2-thioxoimidazolidin-1-yl)cyclohexyl)oxy)propyl)-2,6-dimethylpiperazin-1-yl)-N-(6-(2,6-dioxopiperidin-3-yl)pyridin-3-yl)acetamide hydrochloride] | ≤ 5 nM | 20 to 30%
C[C@@H]1CN(CCCO[C@H]2CC[C@H](N3C(=S)N(c4ccc(C#N)c(C(F)(F)F)c4)C(=O)C3(C)C)CC2)C[C@H](C)N1CC(=O)Nc1ccc(C2CCC(=O)NC2=O)nc1 (stereo partly drawn) [Cmpd 5, 2-((2R,6S)-4-(3-((trans-4-(3-(4-Cyano-3-(trifluoromethyl)phenyl)-5,5-dimethyl-4-oxo-2-thioxoimidazolidin-1-yl)cyclohexyl)oxy)propyl)-2,6-dimethylpiperazin-1-yl)-N-(6-(2,6-dioxopiperidin-3-yl)pyridin-3-yl)acetamide hydrochloride] | ≤ 5 nM | 20 to 30%
C[C@@H]1CN(CCO[C@H]2CC[C@H](N3C(=S)N(c4cnc(C#N)c(Cl)c4)C(=O)C3(C)C)CC2)C[C@H](C)N1CC(=O)Nc1ccc(C2CCC(=O)NC2=O)nc1 (stereo partly drawn) [Cmpd 6, 2-((2R,6S)-4-(2-((trans-4-(3-(5-Chloro-6-cyanopyridin-3-yl)-5,5-dimethyl-4-oxo-2-thioxoimidazolidin-1-yl)cyclohexyl)oxy)ethyl)-2,6-dimethylpiperazin-1-yl)-N-(6-(2,6-dioxopiperidin-3-yl)pyridin-3-yl)acetamide hydrochloride] | ≤ 5 nM | 20 to 30%
C[C@@H]1CN(CCCO[C@H]2CC[C@H](N3C(=S)N(c4ccc(C#N)c(Cl)c4)C(=O)C3(C)C)CC2)C[C@H](C)N1CC(=O)Nc1ccc(C2CCC(=O)NC2=O)nc1 (stereo partly drawn) [Cmpd 7, 2-((2R,6S)-4-(3-((trans-4-(3-(3-Chloro-4-cyanophenyl)-5,5-dimethyl-4-oxo-2-thioxoimidazolidin-1-yl)cyclohexyl)oxy)propyl)-2,6-dimethylpiperazin-1-yl)-N-(6-(2,6-dioxopiperidin-3-yl)pyridin-3-yl)acetamide hydrochloride] | ≤ 5 nM | 0 to 20%
C[C@@H]1CN(CCC[C@H]2CC[C@H](N3C(=S)N(c4cnc(C#N)c(C(F)(F)F)c4)C(=O)C3(C)C)CC2)C[C@H](C)N1CC(=O)Nc1ccc(C2CCC(=O)NC2=O)nc1 (stereo partly drawn) [Cmpd 8, 2-((2R,6S)-4-(3-(trans-4-(3-(6-Cyano-5-(trifluoromethyl)pyridin-3-yl)-5,5-dimethyl-4-oxo-2-thioxoimidazolidin-1-yl)cyclohexyl)propyl)-2,6-dimethylpiperazin-1-yl)-N-(6-(2,6-dioxopiperidin-3-yl)pyridin-3-yl)acetamide hydrochloride] | ≤ 5 nM | 20 to 30%
C[C@@H]1CN(CCO[C@H]2CC[C@H](N3C(=S)N(c4ccc(C#N)c(C(F)(F)F)c4)C(=O)C3(C)C)CC2)C[C@H](C)N1CCC(=O)Nc1ccc(N2CCC(=O)NC2=O)nc1 [Cmpd 9, 3-((2R,6S)-4-(2-((trans-4-(3-(4-Cyano-3-(trifluoromethyl)phenyl)-5,5-dimethyl-4-oxo-2-thioxoimidazolidin-1-yl)cyclohexyl)oxy)ethyl)-2,6-dimethylpiperazin-1-yl)-N-(6-(2,4-dioxotetrahydropyrimidin-1(2H)-yl)pyridin-3-yl)propanamide] | 10 to 100 nM | 30 to 70%
C[C@@H]1CN(CCC[C@H]2CC[C@H](N3C(=S)N(c4ccc(C#N)c(Cl)c4)C(=O)C3(C)C)CC2)C[C@H](C)N1CC(=O)Nc1ccc(C2CCC(=O)NC2=O)nc1 (stereo partly drawn) [Cmpd 10, 2-((2R,6S)-4-(3-(trans-4-(3-(3-Chloro-4-cyanophenyl)-5,5-dimethyl-4-oxo-2-thioxoimidazolidin-1-yl)cyclohexyl)propyl)-2,6-dimethylpiperazin-1-yl)-N-(6-(2,6-dioxopiperidin-3-yl)pyridin-3-yl)acetamide hydrochloride] | 10 to 100 nM | 30 to 70%
C[C@@H]1CN(CCC[C@H]2CC[C@H](N3C(=S)N(c4cnc(C#N)c(Cl)c4)C(=O)C3(C)C)CC2)C[C@H](C)N1CC(=O)Nc1ccc(C2CCC(=O)NC2=O)nc1 (stereo partly drawn) [Cmpd 11, 2-((2S,6R)-4-(3-(trans-4-(3-(5-Chloro-6-cyanopyridin-3-yl)-5,5-dimethyl-4-oxo-2-thioxoimidazolidin-1-yl)cyclohexyl)propyl)-2,6-dimethylpiperazin-1-yl)-N-(6-(2,6-dioxopiperidin-3-yl)pyridin-3-yl)acetamide hydrochloride] | ≤ 5 nM | 20 to 30%
C[C@@H]1CN(CCCO[C@H]2CC[C@H](N3C(=S)N(c4ccc(C#N)c(C(F)(F)F)c4)C(=O)C3(C)C)CC2)C[C@H](C)N1CC(=O)Nc1ccc(N2CCC(=O)NC2=O)nc1 [Cmpd 12, 2-((2R,6S)-4-(3-((trans-4-(3-(4-Cyano-3-(trifluoromethyl)phenyl)-5,5-dimethyl-4-oxo-2-thioxoimidazolidin-1-yl)cyclohexyl)oxy)propyl)-2,6-dimethylpiperazin-1-yl)-N-(6-(2,4-dioxotetrahydropyrimidin-1(2H)-yl)pyridin-3-yl)acetamide hydrochloride] | 100 to 10000 nM | 30 to 70%
CC1(C)C(=O)N(c2ccc(C#N)c(C(F)(F)F)c2)C(=S)N1[C@H]1CC[C@H](OCCN2CCN(CC(=O)Nc3ccc(C4CCC(=O)NC4=O)nc3)[C@@H](C(F)(F)F)C2)CC1 (stereo partly drawn) [Cmpd 13, 2-((R)-4-(2-((trans-4-(3-(4-Cyano-3-(trifluoromethyl)phenyl)-5,5-dimethyl-4-oxo-2-thioxoimidazolidin-1-yl)cyclohexyl)oxy)ethyl)-2-(trifluoromethyl)piperazin-1-yl)-N-(6-(2,6-dioxopiperidin-3-yl)pyridin-3-yl)acetamide hydrochloride] | 5 to 10 nM | 20 to 30%
